Laboratory results as given in US20240226067A9, “ANTI-FIBROTIC THERAPIES” (THE JOHNS HOPKINS UNIVERSITY, priority 2021, published 2024).

Assays:
[1] = tested on: CCO18CD colon fibroblasts stimulated with TGF-β; test: High throughput microscopy-based anti-fibrotic drug screen (α-SMA and collagen 1 expression); type: cell-based
Text: FIG. 1 is images of cells from high throughput microscopy-based analysis of an FDA-approved drug library for potential anti-fibrotic properties.
FIGS. 3A-3C are images of cells from high throughput microscopy-based analysis of potential drugs for anti-fibrotic properties.

[2] = tested on: key fibrosis genes (ACTA2, COL1A1, COL3A1, TGFBR1) in transplanted intestinal tissue; test: Subcutaneous intestinal transplant fibrosis model, qPCR of fibrosis genes; type: in vivo; conditions: mouse; one subcutaneous injection 15 mg/kg; one week after implantation; versus oral pirfenidone 100 mg/kg three times daily
Text: A 1-2 cm segment of bowel was excised from one mouse and implanted in the subcutaneous space on the neck of another mouse of the same genetic background. […] One week after tissue implantation and initiation of treatment, the segment of transplanted intestine tissue was excised to assess expression of key genes involved in fibrosis (α-SMA, ACTA2; collagen type 1, COL1A1; collagen type 3, COL3A1; TGF-β receptor 1, TGFBR1) by qPCR.

[3] = mouse, in vivo, sc, 50 mg/kg
[4] = tested on: intestinal fibroblast cells; test: Cell survival in the microscopy-based screen; conditions: at effective concentrations

SMILES: Cc1ccc(=O)n(-c2ccccc2)c1 [pirfenidone]
- concentration causing reduction in α-SMA and collagen production ([1]; TGF-β stimulated colon fibroblasts): 4 mM
- concentration level at which induced expression of α-SMA and/or collagen was reduced (in words) ([1]; TGF-β stimulated intestinal fibroblasts): millimolar concentrations

SMILES: Clc1ccc(CSC(Cn2ccnc2)c2ccc(Cl)cc2Cl)cc1 (centres unmarked) [sulconazole, 1-[2-[(4-chlorophenyl)methylsulfanyl]-2-(2,4-dichlorophenyl)ethyl]imidazole]
- repression of fibrosis genes (ACTA2, COL1A1, COL3A1, TGFBR1) [2]: significantly more effective than pirfenidone
- mortality [3]: death of mice
- impact on cell survival [4]: minimal impact on cell survival
